Measurements as given in patent US5830871A, “Inhibitors of E-, P- and L-selectin binding” (The Scripps Research Institute, priority 1996, dated 1998).

Experiments:
E-selectin [1] = target: T1, E-selectin (Homo sapiens, UniProt P16581); assay: Inhibition of SLe^x glycoconjugate / HL-60 cell binding to immobilized sol-E-selectin
T1 construct: A 1.67 kbp DNA fragment encoding a truncated structural gene for E-selectin; made in house
T1 sequence (P16581 22-556 limits assumed): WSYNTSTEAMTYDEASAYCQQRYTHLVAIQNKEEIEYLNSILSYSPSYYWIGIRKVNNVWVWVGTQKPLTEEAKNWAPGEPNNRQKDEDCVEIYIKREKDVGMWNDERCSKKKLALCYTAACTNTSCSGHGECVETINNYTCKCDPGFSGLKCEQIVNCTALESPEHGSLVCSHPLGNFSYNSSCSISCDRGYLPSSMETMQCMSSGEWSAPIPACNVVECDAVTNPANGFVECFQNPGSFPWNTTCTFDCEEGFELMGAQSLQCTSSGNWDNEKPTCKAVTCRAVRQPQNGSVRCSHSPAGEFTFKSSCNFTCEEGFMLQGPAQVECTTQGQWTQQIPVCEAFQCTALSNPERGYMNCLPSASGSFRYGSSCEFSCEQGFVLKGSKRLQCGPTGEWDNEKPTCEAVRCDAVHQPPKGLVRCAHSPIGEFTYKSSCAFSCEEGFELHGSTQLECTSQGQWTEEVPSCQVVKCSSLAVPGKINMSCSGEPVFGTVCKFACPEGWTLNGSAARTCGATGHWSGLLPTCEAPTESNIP
Protocol: Analysis of compound 6 (class II compound; FIG. 1) as an inhibitor of SLe^x glycoconjugate binding to E-selectin provides an IC50 value of 0.8 mM, according to the method of S. A. DeFrees, et al., viz. J. Am. Chem. Soc. 1995, 117, 66.
A soluble form of E-selectin (sol-E-selectin) was prepared for inhibition assays of the SLe^x Mimetics. A 1.67 kbp DNA fragment encoding a truncated structural gene for E-selectin was isolated by PCR amplification of CDNA derived from messenger RNA that was isolated from IL-1 activated human endothelial cells. The CDNA was subcloned into the vector pBluescript II and was transfected into 293 cells. The clones were screened for the production of sol-E-selectin, and the clone 293#3 was selected as the stable cell line that produced the greatest amount of sol-E-selectin per cell. Sol-E-selectin was produced on a large scale from this line using a Nunc cell factory. Recombinant sol-E-selectin was isolated from the media using immunoaffinity chromatography.
The SLe^x Mimetics were assayed for ability to block the adhesion of HL-60 cells to immobilized sol-E-selectins (either on a polymeric column solid support or onto the surface of the assay vessle). Immobilized E-selectin was incubated first with inhibitor and then with HL-60 cells. The bound cells were lysed, and myeloperoxidase released from the bound cells was detected with o-phenylenediamine and hydrogen peroxide. The percentage inhibition was determined by comparing the absorbance of the resulting solution at 492 nm to that in wells containing no inhibitor.
Each data point in the E-selectin assay is a direct measure of cells bound using a quantitative enzyme assay. The values were then plotted to give the titration curve and IC50 values. On average, five assays were performed for each inhibitor, and the results were highly reproducible. […] The IC50 values reported here is derived from all the data. Procedure described herein is adopted from Wong et. al. J. Am. Chem. Soc. 1995, 177, 66-79.

L-selectin = assay: Inhibition of L-selectin; type: binding
P-selectin = assay: Inhibition of P-selectin; type: binding
[2] = system: neutrophil/P-selection-dependent rat model; conditions: cited from earlier work; for lung injury / tissue accumulation of neutrophils: intravenous infusion of up to 200 μg, cobra venom
E-selectin [3] = conditions: in vitro; cited from earlier work
[4] = blood stream; glycosidase; cited from earlier work
[5] = system: adhesion of neutophils to endothelial cells; conditions: cited from earlier work
E-selectin [6] = conditions: cited from earlier work
lung injury in rats = conditions: in vivo, read-out: IC50 value in vivo for protecting against lung injury; cited from earlier work
[7] = cited from earlier work

Compound | IC50 (E-selectin [1]) [µM] | biological activity compared with SLe^x (E-selectin [1]; compared with SLe^x (0.50 mM)) | inhibition of L-selectin (L-selectin; @ 3 mM) [%] | L-selectin inhibition activity compared with sialyl Lewis X (L-selectin; compared with sialyl lewis X) | inhibition of P-selectin (P-selectin; @ 3 mM) [%] | P-selectin inhibition activity compared with sialyl Lewis X (P-selectin; compared with sialyl lewis X) | effective intravenous concentration ([2]; calculated from concentrations used, 200 μg) | lung injury [2] | tissue accumulation of neutrophils [2] | affinity for E-selectin (E-selectin [3]) | stability in the blood [4] | adhesion of neutrophils to endothelial cells [5] | SLe^x/E-selectin interaction (E-selectin [6]) | IC50 (lung injury in rats) [µM] | oral activity [7]
O=C(COP(=O)(O)O)[C@@H](O)[C@H](O)C[C@H]1O[C@H](CO)[C@@H](O)[C@H](O)[C@@H]1O [Compound 6] | 800 | almost the same biological activity as SLe^x | > 80 | better or equal to that of sialyl lewis X | > 80 | better or equal to that of sialyl lewis X |  |  |  |  |  |  |  |  | 
CC(=O)NC1C(O)CC(OC2C(O)C(CO)OC(OC3C(CO)OC(O)C(NC(C)=O)C3OC3OC(C)C(O)C(O)C3O)C2O)(C(=O)O)OC1C(O)C(O)CO (stereo not drawn) [SLe^x, NeuAcα2→3Galβ1→4(Fucα1→3GlcNAc] | 500 |  |  |  |  |  | less than 1 μM | dramatically reduced lung injury | diminished tissue accumulation of neutrophils | relatively weak | unstable in the blood stream | blocks adhesion of neutophils to endothelial cells | inhibits the SLe^x /E-selectin interaction | ~1 | orally inactive
NeuAcα2→3Galβ1→4(Fucα1→3)GlcNAcβ1, 3Galβ- [pentamer] |  |  |  |  |  |  |  | dramatically reduced lung injury | diminished tissue accumulation of neutrophils |  |  |  |  |  | 
